From US10544132B2, “Isoindolinone inhibitors of the MDM2-p53 interaction having anticancer activity” (ASTEX THERAPEUTICS LIMITED, priority 2015, dated 2020)

Legend:
SN40R2 cells = experiment: SN40R2 growth inhibition, sulphorhodamine B (SRB) method (Protocol A); settings: 72 h, read-out: SN40R2 IC50 (μM) (Protocol A)
MDM2-p53 interaction = MDM2-p53 interaction (Homo sapiens (Human), UniProt Q00987); experiment: MDM2-p53 interaction 96-well plate binding assay (ELISA)
SJSA-1 cells = experiment: SJSA-1 growth inhibition, sulphorhodamine B (SRB) method (Protocol A); settings: Homo sapiens, SJSA-1, 72 h, read-out: SJSA-1 IC50 (μM) (Protocol A)

Sequence of MDM2-p53 interaction (Q00987 whole entry): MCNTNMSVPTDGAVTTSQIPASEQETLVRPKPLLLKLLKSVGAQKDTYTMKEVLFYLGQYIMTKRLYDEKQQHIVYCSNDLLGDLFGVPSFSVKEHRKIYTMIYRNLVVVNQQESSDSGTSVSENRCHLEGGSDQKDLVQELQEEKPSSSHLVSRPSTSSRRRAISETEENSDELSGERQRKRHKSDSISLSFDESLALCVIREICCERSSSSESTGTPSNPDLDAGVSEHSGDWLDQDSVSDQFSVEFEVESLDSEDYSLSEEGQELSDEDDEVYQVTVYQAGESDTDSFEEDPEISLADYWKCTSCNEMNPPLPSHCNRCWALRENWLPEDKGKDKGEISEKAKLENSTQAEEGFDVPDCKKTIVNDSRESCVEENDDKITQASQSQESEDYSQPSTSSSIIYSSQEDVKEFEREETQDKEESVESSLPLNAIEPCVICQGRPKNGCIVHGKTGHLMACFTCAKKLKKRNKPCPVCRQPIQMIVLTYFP

Q: For `CC(C)(O)c1cc(F)c2c(c1)C(=O)N(Cc1ccc(Cl)cc1)[C@@]2(OCC1(CO)CC1)c1ccc(Cl)cc1` [Example 2, (3R)-3-(4-chlorophenyl)-2-[(4-chlorophenyl)methyl]-4-fluoro-3-{[1-(hydroxymethyl)cyclopropyl]methoxy}-6-(2-hydroxypropan-2-yl)-2,3-dihydro-1H-isoindol-1-one], which IC50 (SN40R2 cells) is on record?
A: 17 µM

Q: What does the source list for `[2H]C([2H])(O)C1(C([2H])([2H])O[C@]2(c3ccc(Cl)cc3)c3ccc(C(C)(C)O)cc3C(=O)N2Cc2ccc(Cl)cc2S(C)(=O)=O)CC1` [Example 36, (3R)-2-[(4-chloro-2-methanesulfonylphenyl)methyl]-3-(4-chlorophenyl)-3-({1-[hydroxy(^2H2)methyl]cyclopropyl}(^2H2)methoxy)-6-(2-hydroxypropan-2-yl)-2,3-dihydro-1H-isoindol-1-one]?
A: IC50 (MDM2-p53 interaction): 0.0019 µM; IC50 (SJSA-1 cells): 0.078 µM; IC50 (SN40R2 cells): 17 µM
